Results taken from article PMC8635108, “Identification of Novel Type Three Secretion System (T3SS) Inhibitors by Computational Methods and Anti-Salmonella Evaluations” (Frontiers in Pharmacology, 2021).
Converted amounts (≈) assume the structure as drawn.

Legend:
Type in all cases: cell-based
[1] = system: S. abortus equi; assay: In vitro anti-Salmonella bioassay (MIC); conditions: Salmonella enterica, 37°C 24 h, mean ± SD, three times
Procedure: (§1) The anti-Salmonella activities of these compounds were performed according to the previous reported protocol ([Wei et al., 2016]), using the minimum inhibitory concentration (MIC) with different strains, including S. enteritidis, S. typhi, S. typhimurium, S. paratyphi, S. and abortus equi. Gatifloxacin was used as positive controls. The test compounds 5, 19, and 32 in DMSO were prepared and then poured into 96-well plates. The final concentration of o.39–100 μg/ml underwent a twofold serial dilution. The bacteria were incubated with a series of different concentrations of compounds at 37°C for 24 h. The microbacterial growth was measured at the absorption of 630 nm. All experiments were carried out in triplicate.

[2] = system: S. typhimurium; assay: In vitro anti-Salmonella bioassay (MIC); conditions: Salmonella enterica, 37°C 24 h, mean ± SD, three times
Procedure: as §1

[3] = system: S. paratyphi; assay: In vitro anti-Salmonella bioassay (MIC); conditions: Salmonella enterica, 24 h
Procedure: as §1

[4] = system: S. typhi; assay: In vitro anti-Salmonella bioassay (MIC); conditions: Salmonella enterica, 37°C 24 h, mean ± SD, three times
Procedure: as §1

[5] = system: S. enteritidis; assay: In vitro anti-Salmonella bioassay (MIC); conditions: Salmonella enterica, 37°C 24 h, mean ± SD, three times
Procedure: as §1

[6] = system: S. typhimurium in RAW 264.7 cells; assay: Intracellular killing assay; conditions: 1 h, vs non-treated S. typhimurium group
Procedure: The intracellular killing experiment was performed according to the previous reported protocol ([Birhanu et al., 2018]). RAW 264.7 cells (10^5 cells/ml) were cultured in 24-well plates, and then treated with S. Typhimurium (10^7 CFU/ml) and further incubated for 45 min. After the cells were washed, the compound 5 (8 μg/ml), […] (19 μg/ml) and 32 (34 μg/ml) or gatifloxacin (3 μg/ml) were respectively added and incubated for 1 h at 37 °C. Finally, cells were treated with gentamicin (100 μg/ml) for 1 h and lysed with 0.1% of trition × 100 before being serially diluted and plated on LB agar. The cells infected with S. Typhimurium without treatment was used as the control.

[7] = system: S. typhimurium invasion of human epithelial cell line (Henle 407); assay: Salmonella invasion assay; conditions: Henle 407 cells, triplicate
Procedure: The effect of T3SS inhibitor candidates on the ability of S. typhimurium to invade a cultured human epithelial cell line (Henle 407) was performed in a method similar to one previously described ([Chatterjee et al., 2011]). Henle 407 cells were grown in DMEM with 10% fetal calf serum at 37°C in 5% CO2 in 24-well plates. The plasmid pRK2-SipD with WT SipD was electroporated into the S. typhimurium SipD ^− strain and single colonies were inoculated into LB media supplemented with 25 mg/L trimethoprim, 50 mg/L ampicillin, 50 mg/L kanamycin and grown in standing cultures overnight. A 10 ml LB culture with 1 mM IPTG was inoculated with 1 ml of overnight bacterial growth, and incubated at 37°C on standing for 2.5–3 h. Approximately 15–30 uL of bacterial suspension was added with 300 uL DMEM into the Henle 407 cells and incubated at 37°C for 60 min to allow invasion before the suspension was removed by aspiration. The Henle 407 cells were incubated with fresh DMEM with 100 mg/L of gentamycin for 1.5 h, aspirated, rinsed with DMEM, and lysed with 1% Triton X-100 to free the entrapped bacteria. The number of bacterial colonies, which correlated with invasiveness, was estimated by serial dilution and plating. The Salmonella invasion assay was done in triplicate.

[8] = In vitro cytotoxicity assay (MTT); conditions: mouse, RAW 264.7 cells, read-out: cell viability
Procedure: To study the cytotoxic effects of compounds on cell viability, the RAW 264.7 cells were seeded into 96-well plates at 1 ×10^4 cells/well and allowed to attach for 24 h. The medium was replaced with 100 μL medium containing the indicated concentrations of compounds and further incubated for 24 h. Each well was added 10 μL MTT (5 mg/ml in PBS) and the plates were incubated for 4 h at 37°C. Supernatants were aspirated and formed formazan was dissolved in 100 μL of dimethyl sulfoxide (DMSO). The optical density (OD) was measured at an absorbance wavelength of 490 nm using a Microplate Reader (Tecan, Switzerland).

| Structure (SMILES) | MIC [1] | MIC [2] | MIC [3] | MIC [4] | MIC [5] | intracellular survival suppression of S. typhimurium ([6]; 3 μg/ml) | effect on invasiveness [7] | viability at 24 h, 8 μg/ml ([8]; 8 μg/ml) | decrease of intracellular survival of S. typhimurium ([6]; 8 μg/ml) | viability at 24 h, 34 μg/ml ([8]; 34 μg/ml) | decrease of intracellular survival of S. typhimurium ([6]; 34 μg/ml) | viability at 24 h, 19 μg/ml ([8]; 19 μg/ml) | decrease of intracellular survival of S. typhimurium ([6]; 19 μg/ml) |
| --- | --- | --- | --- | --- | --- | --- | --- | --- | --- | --- | --- | --- | --- |
| COc1c(N2CCNC(C)C2)c(F)cc2c(=O)c(C(=O)O)cn(C3CC3)c12 (stereo not drawn) [Gatifloxacin, reference compound] | 2 ± 1 µg/mL (≈ 5.33 µM) | 3.3 ± 1.2 µg/mL (≈ 8.79 µM) | 3 ± 1.7 µg/mL (≈ 7.99 µM) | 9.7 ± 2.5 µg/mL (≈ 25.8 µM) | 7.7 ± 1.5 µg/mL (≈ 20.5 µM) | 60.2% |  |  |  |  |  |  |  |
| O=C(O)c1ccc(Cn2nnc3sc4c(c3c2=O)CCCC4)cc1 [Compound 5] | 5 ± 1 µg/mL (≈ 14.6 µM) | 8 ± 2 µg/mL (≈ 23.4 µM) | 24.3 ± 3.5 µg/mL (≈ 71.2 µM) | 12.3 ± 2.1 µg/mL (≈ 36 µM) | 31.6 ± 3.6 µg/mL (≈ 92.6 µM) |  | most drastic effect on the invasiveness | 84.2 ± 5.45% | 44.4% |  |  |  |  |
| Nc1c(-c2ccc(Cl)cc2)cnn1-c1ccc(C(=O)O)cc1 [Compound 32] | 1.2 ± 0.3 µg/mL (≈ 3.82 µM) | 34.3 ± 3.8 µg/mL (≈ 109 µM) | 22 ± 2.6 µg/mL (≈ 70.1 µM) | 44 ± 4.6 µg/mL (≈ 140 µM) | 22 ± 3 µg/mL (≈ 70.1 µM) |  | most drastic effect on the invasiveness |  |  | 86.4 ± 6.04% | 52.2% |  |  |
| Nc1c(S(=O)(=O)O)ccc2c1C(=O)c1ccccc1C2=O [Compound 19] | 3 ± 1 µg/mL (≈ 9.89 µM) | 19.1 ± 3.1 µg/mL (≈ 63 µM) | 16.3 ± 3.1 µg/mL (≈ 53.7 µM) | 31.6 ± 5 µg/mL (≈ 104 µM) | 53.3 ± 4.9 µg/mL (≈ 176 µM) |  | most drastic effect on the invasiveness |  |  |  |  | 91.5 ± 7.09% | 32.5% |
